Where a name gives a salt, the structure may show the parent alone.
Assays:
Type in all cases: physicochemical
[1] = Water uptake / hygroscopicity at relative humidity (sorption-desorption)
[2] = Solvent loss as a function of temperature as measured by TG/DTA
Description: (ii) Thermogravimetric/Differential Thermal Analysis (TG/DTA)
Differential scanning calorimetry was conducted for each crystalline form using a Seiko TG/DTA Instrument. For each analysis, the DSC cell/sample chamber was purged with 100 mL/min of ultra-high purity nitrogengas. The instrument was calibrated with high purity indium. The heating rate was 10° C. per minute in the temperature range between 25 and 300° C. The heat flow, which was normalized by sample weight, was plotted versus the measured sample temperature. The data were reported in units of watts/gram (“W/g”). The plot was made with the endothermic peaks pointing down. The endothermic melt peak (melting point) was evaluated for extrapolated onset temperature.

[3] = Solid form stability on wet granulation, equilibration, humidity exposure, compression, grinding (XRPD); conditions: for form change on wet granulation: wet granulation (with water)
Description: (i) X-Ray Powder Diffraction (XRPD) The X-ray powder diffraction pattern was determined using a Scintag XDS 2000 diffractometer instrument. The X-ray diffraction pattern was recorded between 2° and 35° (2θ) with CuK radiation (45 kV, 40 mA). The measurements were performed at about 45 kV and 40 mA under the following conditions: • Scan rate: 0.5° (20)/min • Chopper increment: 0.02° • Slits (from left to right): 2, 3, 0.3, 0.2 mm

Flowability of the solid = assay: Flowability of the solid

CCOC(=O)[C@H](C)CC(Cc1ccc(-c2ccccc2)cc1)NC(=O)CCC(=O)O (stereo partly drawn) [Modification A, calcium salt of N-(3-carboxyl-1-oxopropyl)-(4S)-(p-phenylphenylmethyl)-4-amino-(2R)-methyl butanoic acid ethyl ester]
hygroscopicity (in words) [1]: hygroscopic
water uptake ([1]; at 95% RH): 13.8%

CCOC(=O)[C@H](C)CC(Cc1ccc(-c2ccccc2)cc1)NC(=O)CCC(=O)O (stereo partly drawn) [Modification B, calcium salt of N-(3-carboxyl-1-oxopropyl)-(4S)-(p-phenylphenylmethyl)-4-amino-(2R)-methyl butanoic acid ethyl ester]
hygroscopicity (in words) [1]: only slightly hygroscopic
water uptake, maximum reached ([1]; can reach up to): up to 11%
hygroscopicity (water uptake) under typical humidity levels ([1]; up to 75% RH): < 2%
thermal stability [2]: thermally stable up to its melting point
form change on equilibration in solvent ([3]; equilibration in water or ethanol/water 1:1): Hydrate formation was observed
form change on wet granulation [3]: Hydrate formation was observed

CCOC(=O)[C@H](C)CC(Cc1ccc(-c2ccccc2)cc1)NC(=O)CCC(=O)O (stereo partly drawn) [Modification HB, calcium salt of N-(3-carboxyl-1-oxopropyl)-(4S)-(p-phenylphenylmethyl)-4-amino-(2R)-methyl butanoic acid ethyl ester]
flowability (Flowability of the solid): good flowability properties
behaviour at humidity (in words) ([1]; 25° C., relative humidity from 0% to 80%): remains dry
water uptake ([1]; at 95% RH): 2.0%
form retention during take-up and release of water ([1]; sorption-desorption experiments): retained
water levels as obtained [2]: 1.4-4.1%
Loss on drying (LOD) ([2]; TG/DTA, 10° C./min, nitrogen, listed as HB): 3.4%
temperature required for complete dehydration ([2]; heating): above 97 °C

CCOC(=O)[C@H](C)CC(Cc1ccc(-c2ccccc2)cc1)NC(=O)CCC(=O)O (stereo partly drawn) [amorphous AHU377 calcium salt, calcium salt of N-(3-carboxyl-1-oxopropyl)-(4S)-(p-phenylphenylmethyl)-4-amino-(2R)-methyl butanoic acid ethyl ester]
water uptake ([1]; at 80% RH): 15.2%
form change on exposure to elevated humidity ([3]; >75% RH): turns into a crystalline hydrate
form change after compression ([3]; compression for 5 min at 10 t, XRPD): No change of the amorphous form
form change after grinding ([3]; grinding, XRPD): No change of the amorphous form
form change on wet granulation [3]: rapidly leads to hydrate formation
